Where two headings read alike, the source gives them in different places.
Target: T1, human B-Raf (Homo sapiens, UniProt P15056)
T1 construct: Flag; GST; made in house; host or cells: Sf9 insect cells (B-Raf); E. coli (MEK1-GST)
Assay: B-Raf Kinase to MEK1 ELISA
Assay type: biochemical
Conditions: for inhibition at 10 µM: read-out: % Inhib./10 uM; for IC50: median, cpd concentrations from 10 μM to 30 nM in half log dilutions, read-out: Median IC50
Summary of the method: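 Flag/GST-tagged human B-Raf (Sf9, ~20 ng/point) phosphorylates non-active GST-MEK1 (50 nM final) with ATP and MgCl2 in MOPS pH 7.2 buffer, 60 min at RT. Product is captured on anti-GST plates; MEK1 pSer217/221 is read by phospho-antibody plus europium conjugate (DELFIA).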

T1 sequence (P15056 whole entry): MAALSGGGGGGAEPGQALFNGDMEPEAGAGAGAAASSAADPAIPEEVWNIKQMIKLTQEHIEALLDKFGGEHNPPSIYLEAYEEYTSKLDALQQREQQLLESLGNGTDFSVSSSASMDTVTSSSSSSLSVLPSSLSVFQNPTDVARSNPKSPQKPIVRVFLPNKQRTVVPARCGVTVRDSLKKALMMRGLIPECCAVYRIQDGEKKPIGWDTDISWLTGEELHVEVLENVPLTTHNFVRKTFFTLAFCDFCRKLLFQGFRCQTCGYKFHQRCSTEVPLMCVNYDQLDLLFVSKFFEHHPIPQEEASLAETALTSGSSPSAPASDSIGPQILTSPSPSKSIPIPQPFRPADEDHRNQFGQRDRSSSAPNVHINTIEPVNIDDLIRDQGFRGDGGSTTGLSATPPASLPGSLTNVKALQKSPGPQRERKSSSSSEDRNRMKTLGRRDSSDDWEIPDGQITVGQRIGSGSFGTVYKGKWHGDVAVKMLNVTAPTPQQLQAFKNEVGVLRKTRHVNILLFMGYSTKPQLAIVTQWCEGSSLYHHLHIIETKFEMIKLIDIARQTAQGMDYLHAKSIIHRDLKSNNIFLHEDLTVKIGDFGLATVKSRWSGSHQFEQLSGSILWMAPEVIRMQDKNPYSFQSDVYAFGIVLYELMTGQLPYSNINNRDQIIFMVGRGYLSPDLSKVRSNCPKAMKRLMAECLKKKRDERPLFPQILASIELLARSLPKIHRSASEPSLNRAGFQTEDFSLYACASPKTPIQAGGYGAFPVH

Row | SMILES | inhibition at 10 µM | IC50 | inhibition at 10 µM (single point assay, 10 uM)
1 | CCOC(=O)c1cnn2c(-c3cccc(NC(=O)Nc4cccc(Cl)c4)c3)ccnc12 [Example 80, Ethyl 7-[3-({[(3-chlorophenyl)amino]carbonyl}amino)phenyl]-pyrazolo[1,5-a]pyrimidine-3-carboxylate] | 47% | – | –
2 | CCOC(=O)c1cnn2c(-c3cccc(NC(=O)Nc4ccc(OC)c(Cl)c4)c3)ccnc12 [Example 81, ethyl 7-[3-({[(3-chloro-4-methoxyphenyl)amino]carbonyl}amino)phenyl]pyrazolo[1,5-a]pyrimidine-3-carboxylate] | 50% | 6.15 µM | –
3 | CCOC(=O)c1cnn2c(-c3cccc(NC(=O)Nc4ccc(C)c(Cl)c4)c3)ccnc12 [Example 82, ethyl 7-[3-({[(3-chloro-4-methylphenyl)amino]carbonyl}amino)phenyl]pyrazolo[1,5-a]pyrimidine-3-carboxylate] | 77% | 0.57 µM | –
4 | CCOC(=O)c1cnn2c(-c3cccc(NC(=O)Nc4ccc(Br)c(Cl)c4)c3)ccnc12 [Example 83, ethyl 7-[3-({[(4-bromo-3-chlorophenyl)amino]carbonyl}amino)phenyl]pyrazolo[1,5-a]pyrimidine-3-carboxylate] | 71% | 0.6 µM | –
5 | CCOC(=O)c1cnn2c(-c3cccc(NC(=O)Nc4ccc(N5CCOCC5)c(Cl)c4)c3)ccnc12 [Example 84, ethyl 7-[3-({[(3-chloro-4-morpholin-4-ylphenyl)amino]carbonyl}amino)phenyl]pyrazolo[1,5-a]pyrimidine-3-carboxylate] | 22% | > 10 µM | –
6 | CCOC(=O)c1cnn2c(-c3cc(NC(=O)c4cccc(C(F)(F)F)c4)ccc3[N+](=O)[O-])ccnc12 [Example 85, ethyl 7-(2-nitro-5-{[3-(trifluoromethyl)benzoyl]amino}phenyl)pyrazolo[1,5-a]pyrimidine-3-carboxylate] | 81% | 0.41 µM | –
7 | CCOC(=O)c1cnn2c(-c3ccc(Cl)c(NC(=O)c4cccc(C(F)(F)F)c4)c3)ccnc12 [Example 86, ethyl 7-(4-chloro-3-{[3-(trifluoromethyl)benzoyl]amino}phenyl)pyrazolo[1,5-a]pyrimidine-3-carboxylate] | 18% | > 10 µM | –
8 | CCOC(=O)c1cnn2c(-c3ccc(N4CC(C)OC(C)C4)c(NC(=O)c4cccc(C(F)(F)F)c4)c3)ccnc12 (centres unmarked) [Example 87, ethyl 7-(4-(2,6-dimethylmorpholin-4-yl)-3-{[3-(trifluoromethyl)benzoyl]amino}phenyl)pyrazolo[1,5-a]pyrimidine-3-carboxylate] | 9% | > 10 µM | –
9 | CCOC(=O)c1cnn2c(-c3ccc(OC)c(NC(=O)c4cccc(C(F)(F)F)c4)c3)ccnc12 [Example 88, ethyl 7-(4-methoxy-3-{[3-(trifluoromethyl)benzoyl]amino}phenyl)pyrazolo[1,5-a]pyrimidine-3-carboxylate] | 14% | > 10 µM | –
10 | CCOC(=O)c1cnn2c(-c3ccc(F)c(NC(=O)c4cccc(C(F)(F)F)c4)c3)ccnc12 [Example 89, ethyl 7-(4-fluoro-3-{[3-(trifluoromethyl)benzoyl]amino}phenyl)pyrazolo[1,5-a]pyrimidine-3-carboxylate] | 65% | 2.17 µM | –
11 | CCOC(=O)c1cnn2c(-c3ccc(OCc4ccccc4)c(NC(=O)c4cccc(C(F)(F)F)c4)c3)ccnc12 [Example 90, ethyl 7-(4-(benzyloxy)-3-{[3-(trifluoromethyl)benzoyl]amino}phenyl)pyrazolo[1,5-a]pyrimidine-3-carboxylate] | 4% | > 10 µM | –
12 | CCOC(=O)c1cnn2c(-c3cc(NC(=O)c4cccc(C(F)(F)F)c4)ccc3F)ccnc12 [Example 91, ethyl 7-(2-fluoro-5-{[3-(trifluoromethyl)benzoyl]amino}phenyl)pyrazolo[1,5-a]pyrimidine-3-carboxylate] | 94% | 0.112 µM | –
13 | CCOC(=O)c1cnn2c(-c3cccc(NC(=O)Cc4cccc(Br)c4)c3)ccnc12 [Example 92, ethyl 7-(3-{[(3-bromophenyl)acetyl]amino}phenyl)pyrazolo[1,5-a]pyrimidine-3-carboxylate] | 97% | > 10 µM | –
14 | CCOC(=O)c1cnn2c(-c3cccc(NC(=O)Cc4cccc(F)c4)c3)ccnc12 [Example 93, ethyl 7-(3-{[(3-fluorophenyl)acetyl]amino}phenyl)pyrazolo[1,5-a]pyrimidine-3-carboxylate] | 0% | > 10 µM | –
15 | CCOC(=O)c1cnn2c(-c3cccc(NC(=O)Cc4cccc(Cl)c4)c3)ccnc12 [Example 94, ethyl 7-(3-{[(3-chlorophenyl)acetyl]amino}phenyl)pyrazolo[1,5-a]pyrimidine-3-carboxylate] | 14% | > 10 µM | –
16 | CCOC(=O)c1cnn2c(-c3cccc(NC(=O)Cc4ccc(Cl)c(Cl)c4)c3)ccnc12 [Example 95, ethyl 7-(3-{[(3,4-dichlorophenyl)acetyl]amino}phenyl)pyrazolo[1,5-a]pyrimidine-3-carboxylate] | 39% | > 10 µM | –
17 | CCOC(=O)c1cnn2c(-c3cccc(NC(=O)Cc4cccc(OC)c4)c3)ccnc12 [Example 96, ethyl 7-(3-{[(3-methoxyphenyl)acetyl]amino}phenyl)pyrazolo[1,5-a]pyrimidine-3-carboxylate] | 0% | > 10 µM | –
18 | CCOC(=O)c1cnn2c(-c3cccc(NC(=O)Cc4cccc(C(F)(F)F)c4)c3)ccnc12 [Example 97, ethyl 7-[3-({[3-(trifluoromethyl)phenyl]acetyl}amino)phenyl]pyrazolo[1,5-a]pyrimidine-3-carboxylate] | 49% | 8.6 µM | –
19 | CCOC(=O)c1cnn2c(-c3cccc(NC(=O)Cc4cccc(C)c4)c3)ccnc12 [Example 98, ethyl 7-(3-{[(3-methylphenyl)acetyl]amino}phenyl)pyrazolo[1,5-a]pyrimidine-3-carboxylate] | 15% | > 10 µM | –
20 | CCOC(=O)c1cnn2c(-c3cccc(NC(=O)Cc4cc(C(F)(F)F)cc(C(F)(F)F)c4)c3)ccnc12 [Example 99, ethyl 7-[3-({[3,5-bis(trifluoromethyl)phenyl]acetyl}amino)phenyl]pyrazolo[1,5-a]pyrimidine-3-carboxylate] | 13% | > 10 µM | –
21 | CCOC(=O)c1cnn2c(-c3cccc(NC(=O)Cc4ccc5c(c4)OCO5)c3)ccnc12 [Example 100, ethyl 7-{3-[(1,3-benzodioxol-5-ylacetyl)amino]phenyl}pyrazolo[1,5-a]pyrimidine-3-carboxylate] | 2% | > 10 µM | –
22 | CCOC(=O)c1cnn2c(-c3cccc(NC(=O)Cc4ccc(OC)c(C)c4)c3)ccnc12 [Example 101, ethyl 7-(3-{[(4-methoxy-3-methylphenyl)acetyl]amino}phenyl)pyrazolo[1,5-a]pyrimidine-3-carboxylate] | 0% | > 10 µM | –
23 | CCOC(=O)c1cnn2c(-c3cccc(NC(=O)Cc4c(F)ccc(F)c4F)c3)ccnc12 [Example 102, ethyl 7-(3-{[(2,3,6-trifluorophenyl)acetyl]amino}phenyl)pyrazolo[1,5-a]pyrimidine-3-carboxylate] | 0% | > 10 µM | –
24 | CCOC(=O)c1cnn2c(-c3cccc(NC(=O)c4ccc(Cl)c(C(F)(F)F)c4)c3)ccnc12 [Example 103, ethyl 7-(3-{[4-chloro-3-(trifluoromethyl)benzoyl]amino}phenyl)pyrazolo[1,5-a]pyrimidine-3-carboxylate] | 59% | 2.49 µM | –
25 | CCOC(=O)c1cnn2c(-c3cccc(NC(=O)c4cc(C(F)(F)F)ccc4C)c3)ccnc12 [Example 104, ethyl 7-(3-{[2-methyl-5-(trifluoromethyl)benzoyl]amino}phenyl)pyrazolo[1,5-a]pyrimidine-3-carboxylate] | – | 10.1 µM | 1%
26 | CCOC(=O)c1cnn2c(-c3cc(NC(=O)c4ccc(C)c(C(F)(F)F)c4)ccc3[N+](=O)[O-])ccnc12 [Example 105, ethyl 7-(5-{[4-methyl-3-(trifluoromethyl)benzoyl]amino}-2-nitrophenyl)pyrazolo[1,5-a]pyrimidine-3-carboxylate] | 37% | > 10 µM | –
27 | CCOC(=O)c1cnn2c(-c3ccc(Cl)c(NC(=O)c4ccc(C)c(C(F)(F)F)c4)c3)ccnc12 [Example 106, ethyl 7-(4-chloro-3-{[4-methyl-3-(trifluoromethyl)benzoyl]amino}phenyl)pyrazolo[1,5-a]pyrimidine-3-carboxylate] | 2% | > 10 µM | –
28 | CCOC(=O)c1cnn2c(-c3ccc(OC)c(NC(=O)c4ccc(C)c(C(F)(F)F)c4)c3)ccnc12 [Example 107, ethyl 7-(4-methoxy-3-{[4-methyl-3-(trifluoromethyl)benzoyl]amino}phenyl)pyrazolo[1,5-a]pyrimidine-3-carboxylate] | 0% | > 10 µM | –
29 | CCOC(=O)c1cnn2c(-c3ccc(OCc4ccccc4)c(NC(=O)c4ccc(C)c(C(F)(F)F)c4)c3)ccnc12 [Example 108, ethyl 7-(4-(benzyloxy)-3-{[4-methyl-3-(trifluoromethyl)benzoyl]amino}phenyl)pyrazolo[1,5-a]pyrimidine-3-carboxylate] | 20% | > 10 µM | –
30 | CN(C)CCCc1cc2nccc(-c3cccc(NC(=O)c4cccc(C(F)(F)F)c4)c3)n2n1 [Example 110, N-(3-{2-[3-(dimethylamino)propyl]pyrazolo[1,5-a]pyrimidin-7-yl}phenyl)-3-(trifluoromethyl)benzamide] | 24% | > 10 µM | –
